Results: ChEMBL document CHEMBL1125067, “Synthesis and structural requirements of N-substituted norapomorphines for affinity and activity at dopamine D-1, D-2, and agonist receptor sites in rat brain” (J Med Chem, 1990)

Experiments:
Rattus norvegicus = test: Stereotyped behavior was tested in rats at (ip) administration of 3 mg/kg (N=6).scores were compared as the percent of that obtained with apomorphine; format: functional
D(1A) dopamine receptor = D(1A) dopamine receptor (Rattus norvegicus, UniProt P18901)
Sequence of D(1A) dopamine receptor (P18901 whole entry): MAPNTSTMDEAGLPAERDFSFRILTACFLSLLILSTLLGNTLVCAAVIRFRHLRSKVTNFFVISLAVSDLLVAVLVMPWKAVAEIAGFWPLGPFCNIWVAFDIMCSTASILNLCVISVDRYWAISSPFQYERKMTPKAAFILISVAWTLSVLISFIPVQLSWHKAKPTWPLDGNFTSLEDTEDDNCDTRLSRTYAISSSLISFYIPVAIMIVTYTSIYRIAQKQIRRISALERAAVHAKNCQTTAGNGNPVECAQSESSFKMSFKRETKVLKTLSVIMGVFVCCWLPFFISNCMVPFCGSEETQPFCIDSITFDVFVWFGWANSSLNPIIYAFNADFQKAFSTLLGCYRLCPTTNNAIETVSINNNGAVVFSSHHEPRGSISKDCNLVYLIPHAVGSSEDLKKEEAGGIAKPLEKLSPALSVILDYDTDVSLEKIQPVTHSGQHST
Description: Dopamine receptor D1 affinity was tested in vitro against corpus striatum from rat brain membranes

D(2) dopamine receptor = D(2) dopamine receptor (Rattus norvegicus, UniProt P61169)
Sequence of D(2) dopamine receptor (P61169 whole entry): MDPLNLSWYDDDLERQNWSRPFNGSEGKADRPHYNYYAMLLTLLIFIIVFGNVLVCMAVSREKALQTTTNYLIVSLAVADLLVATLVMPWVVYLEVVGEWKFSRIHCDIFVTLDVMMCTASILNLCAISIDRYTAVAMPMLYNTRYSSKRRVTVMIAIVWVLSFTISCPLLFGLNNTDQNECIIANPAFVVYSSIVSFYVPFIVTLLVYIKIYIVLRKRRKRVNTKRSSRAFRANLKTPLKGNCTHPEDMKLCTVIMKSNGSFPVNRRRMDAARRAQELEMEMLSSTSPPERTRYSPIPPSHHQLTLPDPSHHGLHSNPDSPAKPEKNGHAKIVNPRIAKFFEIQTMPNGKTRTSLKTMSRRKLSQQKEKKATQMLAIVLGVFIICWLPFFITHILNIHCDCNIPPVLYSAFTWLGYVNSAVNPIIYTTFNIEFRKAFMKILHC
Description: Dopamine receptor D2 affinity was tested in vitro against corpus striatum from rat brain membranes

| SMILES | Stereotypy score (Rattus norvegicus) | Ki (D(1A) dopamine receptor) [nM] | Ki (D(2) dopamine receptor) [nM] |
| --- | --- | --- | --- |
| CC(C)N1CCc2cccc3c2[C@H]1Cc1ccc(O)c(O)c1-3.Cl | 0 | > 10000 |  |
| CCCN1CCc2cccc3c2[C@H]1Cc1ccc(O)c(O)c1-3.Cl | 99 |  |  |
| Br.C=CCN1CCc2cccc3c2[C@H]1Cc1ccc(O)c(O)c1-3 | 86 | 615 |  |
| Cl.Oc1ccc2c(c1O)-c1cccc3c1[C@@H](C2)N(CC1CC1)CC3 | 106 | 730 | 0.43 |
| Cl.Oc1ccc2c(c1O)-c1cccc3c1[C@@H](C2)N(CC(F)(F)F)CC3 | 2 | > 50000 |  |
| CCN1CCc2cccc3c2[C@H]1Cc1ccc(O)c(O)c1-3.Cl | 97 | 124 |  |
| Cl.Oc1ccc2c(c1O)-c1cccc3c1[C@@H](C2)NCC3 | 26 | 390 |  |
| Oc1ccc2c(c1O)-c1cccc3c1[C@@H](C2)N(CC(F)(F)C(F)(F)F)CC3 |  | > 50000 |  |
| CN1CCc2cccc3c2[C@H]1Cc1ccc(O)c(O)c1-3.CN1CCc2cccc3c2[C@H]1Cc1ccc(O)c(O)c1-3.Cl.Cl.O [APOMORPHINE HYDROCHLORIDE] | 100 |  |  |
| Cl.OCCN1CCc2cccc3c2[C@H]1Cc1ccc(O)c(O)c1-3 | 0 | > 10000 |  |
| CC(C)CN1CCc2cccc3c2[C@H]1Cc1ccc(O)c(O)c1-3.Cl | 3 | > 10000 | 490 |
